Data published in ChEMBL document CHEMBL3045174, “Synthesis and Insecticidal Activity of Alkylated N-Benzoyl-N-Phenylureas and Their Toxicity to Aquatic Invertebrate” (J Pestic Sci, 1998).

Legend:
[1] = tested on: Plutella xylostella; test: Insecticidal activity against second or third-instar Plutella xylostella (diamondback moth) in compound treated cabbage leaves at 26 degC; format: functional
[2] = tested on: Daphnia magna; test: Toxicity in Daphnia magna assessed as […] concentration measured up to 48 hr; format: organism-based
[3] = Lipophilicity, log P of the compound by HPLC method; format: physicochemical

SMILES | LC90 [1] [ppm] | EC50 [2] [ppb] | logP [3]
CN(C(=O)NC(=O)c1c(F)cccc1F)c1ccc(-c2ccc(Br)cc2)cc1 | 0.04 | 150 | –
CN(C(=O)NC(=O)c1c(F)cccc1F)c1cc(Cl)c(F)c(Cl)c1F | 0.15 | > 500 | –
CN(C(=O)NC(=O)c1c(F)cccc1F)c1ccc(Cl)cc1 | 12.5 | > 500 | –
CN(C(=O)NC(=O)c1c(F)cccc1F)c1ccc(Oc2ccc(C(F)(F)F)cc2Cl)c(F)c1 | 0.04 | 500 | –
O=C(NC(=O)N(CC(F)(F)F)c1cc(Cl)c(Oc2ncc(C(F)(F)F)cc2Cl)c(Cl)c1)c1c(F)cccc1F | 1.25 | – | –
O=C(NC(=O)N(Cc1ccccc1)c1cc(Cl)c(Oc2ncc(C(F)(F)F)cc2Cl)c(Cl)c1)c1c(F)cccc1F | 5 | – | –
CN(C(=O)NC(=O)c1c(F)cccc1F)c1ccc(Oc2ccc(C(F)(F)F)cc2Cl)c(Cl)c1 | 0.04 | 100 | –
CN(C(=O)c1c(F)cccc1F)C(=O)N(C)c1cc(Cl)c(Oc2ncc(C(F)(F)F)cc2Cl)c(Cl)c1 | 0.3 | > 500 | 4.76
CCN(C(=O)NC(=O)c1c(F)cccc1F)c1cc(Cl)c(Oc2ncc(C(F)(F)F)cc2Cl)c(Cl)c1 | 0.3 | – | –
CC(C)N(C(=O)NC(=O)c1c(F)cccc1F)c1cc(Cl)c(Oc2ncc(C(F)(F)F)cc2Cl)c(Cl)c1 | 0.8 | – | –
CN(C(=O)NC(=O)c1c(F)cccc1F)c1cc(Cl)c(Oc2ncc(C(F)(F)F)cc2Cl)c(Cl)c1 | 0.08 | 450 | 4.21
CN(C(=O)Nc1cc(Cl)c(Oc2ncc(C(F)(F)F)cc2Cl)c(Cl)c1)C(=O)c1c(F)cccc1F | 10 | > 500 | 7.26
O=C(NC(=O)c1c(F)cccc1F)Nc1cc(Cl)c(Oc2ncc(C(F)(F)F)cc2Cl)c(Cl)c1 [CHLORFLUAZURON] | 0.04 | – | 5.71
O=C(NC(=O)c1c(F)cccc1F)Nc1ccc(Cl)cc1 [DIFLUBENZURON] | 12.5 | – | –
O=C(NC(=O)c1c(F)cccc1F)Nc1ccc(Oc2ccc(C(F)(F)F)cc2Cl)cc1F [FLUFENOXURON] | 0.04 | – | –
O=C(NC(=O)c1c(F)cccc1F)Nc1cc(Cl)c(OC(F)(F)C(F)F)c(Cl)c1 [HEXAFLUMURON] | 0.04 | – | –
O=C(NC(=O)c1c(F)cccc1F)Nc1cc(Cl)c(F)c(Cl)c1F [TEFLUBENZURON] | 0.02 | – | –
